Measured values as given in patent publication US20090023186A1, “USE OF VALPROIC ACID FOR ENHANCING PRODUCTION OF RECOMBINANT PROTEINS IN MAMMALIAN CELLS” (EXCELLGENE SA, priority 2007, published 2009).

Tested on: HEK293E cells
Assay: Alternative transgene TNFR-Fc, batch titer by ELISA (Example 4)
Assay type: cell-based, Human
Details: 3.8 mmol/l final VPA, day 5 after transfection
Description: 10 million suspension-adapted HEK293E cells were resuspended in 0.5 ml of Ex-Cell 293 HEK 293 serum-free medium with 4 mmol/l L-glutamine (Cat. No. 14571C-[…]; Lot No. 6A0093; SAFC Biosciences, Lenexa, Kans., USA, “Ex-Cell” medium; note: “Ex-Cell” medium-as used herein-refers to a medium comprising 4 mmol/l L-glutamine) in a 50-ml filter tube each (TPP AG, Trasadingen, Switzerland; Cat. No. 87050, Lot 20050174). In a separate set, 10 million suspension-adapted CHO DG44 cells were resuspended in 0.5 ml of ProCHO5 serum-free medium with 4 mmol/[…] hypoxanthine and 0.194 g/l thymidine (BioWhittaker (Lonza), Belgium; Cat. No. BE12-[…]; Lot No. 7MB0040; “ProCHO5” medium; note: “ProCHO5” medium-as used herein-refers to a medium comprising 4 mmol/[…] hypoxanthine and 0.194 g/l thymidine) in a 50-ml filter tube each (TPP AG, Trasadingen, Switzerland; Cat. No. 87050, Lot 20050174). […] In short, Goat Anti-Human IgG (Fc Fragment specific; Jackson ImmunoResearch Laboratories Inc., West Grove, Pa., USA; Code Number 109-006-098; Lot No. 72349) was used for coating the ELISA-plates, and with AP-conjugated goat anti-human gamma chain IgG (Biosource) the synthesized TNFR-Fc was detected. […] Absorption was measured at 405 nm against 490 nm using a microplate reader (SPECTRAmaxTM340; Molecular Devices, Palo Alto, Calif., USA).

In the case of `CCCC(CCC)C(=O)O` [VPA, valproic acid], the Batch titer is reported as 159.5 ± 12.0 mg/L and the “Fold increase over control” value is reported as 4.5 fold.
